The values below are quoted from earlier work in patent US9241912B2, “Agrochemical formulation comprising encapsulated pesticide” (priority 2011, dated 2016).

The conditions of this data set: for solubility in water: at 20° C.

Molecules are shown by their SMILES. In brackets after ≈: the same amount, converted by molar mass.

In the case of `CCC(C)CC(C)=O` (stereo not shown) [4-methyl-2-hexanone], the solubility in water is 4300 µg/mL (≈ 37.7 mM).

Turning to `CCCCC(C)C(C)=O` (stereo not shown) [3-methyl-2-heptanone], the solubility in water is 900 µg/mL (≈ 7.02 mM).

Regarding `CC(=O)CC(C)(C)C` [4,4-dimethyl-2-pentanone], the solubility in water was 10400 µg/mL (≈ 91.1 mM).

For `CC(=O)C(C)C(C)C` (stereo not shown) [3,4-dimethyl-2-pentanone], the solubility in water was 6700 µg/mL (≈ 58.7 mM).

Turning to `CCCCC(=O)C(C)C` [2-methyl-3-heptanone], the solubility in water was 1400 µg/mL (≈ 10.9 mM).

Regarding `CCC(C)(C)C(C)=O` [3,3-dimethyl-2-pentanone], the solubility in water was 7300 µg/mL (≈ 63.9 mM).

Consider `CCCC(=O)CC(C)C` [2-methyl-4-heptanone], for which the solubility in water was 1700 µg/mL (≈ 13.3 mM).

Consider `CCCC(=O)C(C)C` [2-methyl-3-hexanone], for which the solubility in water was 6300 µg/mL (≈ 55.2 mM).

In the case of `CCCC(=O)C(C)(C)C` [2,2-dimethyl-3-hexanone], the solubility in water is 2800 µg/mL (≈ 21.8 mM).

Turning to `CCC(=O)C(C)CC` (stereo not shown) [4-methyl-3-hexanone], the solubility in water was 5200 µg/mL (≈ 45.5 mM).

With `CCCCC(=O)CCC` [Example 4-octanone, 4-octanone], the solubility in water was 1000 µg/mL (≈ 7.8 mM).

`CCCC(C)C(C)=O` (stereo not shown) [3-methyl-2-hexanone]: the solubility in water was 4100 µg/mL (≈ 35.9 mM).

In the case of `CCC(=O)C(C)(C)CC` [4,4-dimethyl-3-hexanone], the solubility in water was 2500 µg/mL (≈ 19.5 mM).

Turning to `CC(C)C(=O)C(C)(C)C` [2,2,4-trimethyl-3-pentanone], the solubility in water is 5500 µg/mL (≈ 42.9 mM).

Consider `CCC(C)CCC(C)=O` (stereo not shown) [5-methyl-2-heptanone], for which the solubility in water is 1000 µg/mL (≈ 7.8 mM).

Consider `CCC(C(C)=O)C(C)C` (stereo not shown) [3-ethyl-4-methyl-2-pentanone], for which the solubility in water was 1700 µg/mL (≈ 13.3 mM).

`CC1=CC(=O)CC(C)(C)C1` [isoporone]: the solubility in water is 15000 µg/mL (≈ 109 mM).

Turning to `CCC(C)(CC)C(C)=O` [3-ethyl-3-methyl-2-pentanone], the solubility in water was 1800 µg/mL (≈ 14 mM).

For the molecule `CCC(=O)CCC(C)C` [6-methyl-3-heptanone], the solubility in water is 900 µg/mL (≈ 7.02 mM).

For `CCC(=O)CC(C)C` [5-methyl-3-hexanone], the solubility in water was 5200 µg/mL (≈ 45.5 mM).

Consider `CCC(C)C(C)C(C)=O` (stereo not shown) [3,4-dimethyl-2-hexanone], for which the solubility in water is 1400 µg/mL (≈ 10.9 mM).

On to `CCC(=O)C(C)(C)C` [2,2-dimethyl-3-pentanone], for which the solubility in water is 10400 µg/mL (≈ 91.1 mM).

With `CC(=O)CCCC(C)C` [6-methyl-2-heptanone], the solubility in water is 800 µg/mL (≈ 6.24 mM).

For `CCC(CC)C(C)=O` [3-ethyl-2-pentanone], the solubility in water was 4600 µg/mL (≈ 40.3 mM).

With `CCCCC(C)=O` [Example 2-hexanone, 2-hexanone], the solubility in water was 14000 µg/mL (≈ 140 mM).

For `CCCC(C)(C)C(C)=O` [3,3-dimethyl-2-hexanone], the solubility in water is 2700 µg/mL (≈ 21.1 mM).

In the case of `CC(C)=O` [acetone], where the note is “not suitable as solvent B”, the “solubility in water (in words)” value was “completely miscible with water”.

Take `CCCC(=O)C(C)CC` (stereo not shown) [3-methyl-4-heptanone]: the solubility in water is 1900 µg/mL (≈ 14.8 mM).
